Assay results taken from patent publication US11779550B2, “Bisphenol ether derivatives and methods for using the same” (THE UNIVERSITY OF BRITISH COLUMBIA, priority 2015, dated 2023).
Read-outs that look alike come from different tables or passages of the source.

Target: T1, androgen receptor (AR) (Homo sapiens, UniProt P10275, T878A)
T1 construct: endogenous in cells; host or cells: LNCaP
T1 sequence (P10275 1-920 T878A): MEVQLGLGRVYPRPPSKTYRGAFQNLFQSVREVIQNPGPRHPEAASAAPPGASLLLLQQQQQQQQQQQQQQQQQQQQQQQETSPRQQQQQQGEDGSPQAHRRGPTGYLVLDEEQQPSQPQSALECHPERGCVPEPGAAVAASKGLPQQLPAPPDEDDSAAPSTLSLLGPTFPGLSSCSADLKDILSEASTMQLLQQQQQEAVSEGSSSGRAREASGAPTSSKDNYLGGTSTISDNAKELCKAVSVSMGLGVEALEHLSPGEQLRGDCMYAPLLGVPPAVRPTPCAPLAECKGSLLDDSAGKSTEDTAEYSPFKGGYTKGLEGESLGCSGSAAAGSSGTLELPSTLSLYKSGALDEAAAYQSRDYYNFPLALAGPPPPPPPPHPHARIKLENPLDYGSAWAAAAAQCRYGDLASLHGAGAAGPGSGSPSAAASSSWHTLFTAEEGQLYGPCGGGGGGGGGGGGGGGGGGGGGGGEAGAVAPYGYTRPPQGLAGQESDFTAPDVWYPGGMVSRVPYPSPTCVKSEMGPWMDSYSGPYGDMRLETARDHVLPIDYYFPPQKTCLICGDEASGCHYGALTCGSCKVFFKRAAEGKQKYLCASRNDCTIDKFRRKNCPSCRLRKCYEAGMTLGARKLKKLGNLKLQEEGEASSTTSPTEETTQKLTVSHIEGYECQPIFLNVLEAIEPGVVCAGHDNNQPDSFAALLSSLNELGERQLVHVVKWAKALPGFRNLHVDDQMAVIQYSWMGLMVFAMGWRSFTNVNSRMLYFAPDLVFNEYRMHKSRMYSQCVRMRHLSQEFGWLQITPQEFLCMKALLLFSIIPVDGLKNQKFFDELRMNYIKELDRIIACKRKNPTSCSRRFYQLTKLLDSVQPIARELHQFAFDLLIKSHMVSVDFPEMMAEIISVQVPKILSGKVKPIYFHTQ
Experiment: PSA (6.1 kb)-luciferase reporter assay in LNCaP cells induced with R1881
Type: cell-based
Details: LNCaP cells transfected with PSA (6.1 kb)-luciferase, 1 h pre-treatment, R1881 (1 nM) 24 h
Experimental: LNCaP cells were transiently transfected with PSA (6.1 kb)-luciferase for 24 h prior to pre-treatment with compounds of the invention (e.g., Compound 1c) ranging in concentration from 62.5 ng/ml to 1.5 ug/ml for 1 hour before the addition of vehicle, or synthetic androgen, R1881 (1 nM) to induce luciferase production. After 24 h of incubation with R1881, the cells were harvested, and relative luciferase activities were determined. To determine the IC50, treatments were normalized to the predicted maximal activity induction (in the absence of test compounds, vehicle only).

IC50 (Trial 1, read-out: IC50, Trial 1): 14 µM
IC50 (Trial 2, read-out: IC50, Trial 2): 19.4 µM
IC50 (Trial 3, read-out: IC50, Trial 3): 17 µM
IC50 (Trial 4, read-out: IC50, Trial 4): 15.8 µM
IC50 (average of trials, read-out: Average IC50): 16.7 ± 2.68 µM
SMILES: CC(C)(c1ccc(OC[C@H](O)CO)cc1)c1ccc(OC[C@@H](Cl)CO)cc1 [Compound 1c, (R)-3-(4-(2-(4-((S)-2-chloro-3-hydroxypropoxy)phenyl)propan-2-yl)phenoxy)propane-1,2-diol]
